Source: US8653108B1, “Oximes for treatment of peripheral and central nervous system exposure to acetyl cholinesterase inhibitors” (priority 2011, dated 2014)

Assays:
[1] = system: Madin Darby canine kidney cell line transfected with human MDR-1 gene; assay: MDR/MDCK bidirectional transwell permeability assay; type: in vitro ADME
Experimental: (§1) See, Wang, Q. et al, Evaluation of the MDR-MDCK Cell Line As a Permeability Screen For The Blood Brain Barrier, Int. J. Pharm. 288(2) 349-359. The assay is a bidirectional assay in a transwell format system, assessing the permeability of compounds across a Madin Darby canine kidney cell line transfected with human MDR-1 gene. Efflux is assessed based on ratios from the basolateral and apical sides of the chamber.

[2] = system: human MDR-1 (P-gp); assay: as above; type: in vitro ADME, canine; conditions: dog
Experimental: as §1

CS(=O)(=O)[O-].CS(=O)(=O)[O-].ON=Cc1cc[n+](C[n+]2ccc(C=NO)cc2)cc1 [MMB4 DMS]
Brain Penetration Classification [1]: Low
Papp A-B ([1]; apical to basolateral): <5.7 nm/s
Papp B-A ([1]; basolateral to apical): <5.7 nm/s

CCN(CC)CCNC(=O)/C=N/O.Cl [Example 1, N-(2-(diethylamino)ethyl)-2-(hydroxyimino)acetamide hydrochloride]
Papp A→B ([2]; MDCK-MDR1, apical to basolateral): < 5.1 nm/s
Papp B→A ([2]; MDCK-MDR1, basolateral to apical): < 6.7 nm/s
Brain Penetration Classification [1]: Low
